Test results taken from the CheMixHub viscosity set.
± gives the uncertainty stated by the source.

Assay: xn = mol fraction of the nth substance listed
Settings: 101 kPa

## CC(=O)O + CC(C)=O
293.15 K, x1 = 0.13
  viscosity: 0.3909 ± 0.01 mPa·s
293.15 K, x1 = 0.222
  viscosity: 0.4389 ± 0.012 mPa·s
293.15 K, x1 = 0.302
  viscosity: 0.4916 ± 0.013 mPa·s
293.15 K, x1 = 0.4025
  viscosity: 0.5632 ± 0.015 mPa·s
293.15 K, x1 = 0.5066
  viscosity: 0.6549 ± 0.017 mPa·s
293.15 K, x1 = 0.605
  viscosity: 0.7515 ± 0.02 mPa·s
293.15 K, x1 = 0.6994
  viscosity: 0.8612 ± 0.023 mPa·s
293.15 K, x1 = 0.805
  viscosity: 0.9881 ± 0.026 mPa·s
293.15 K, x1 = 0.9011
  viscosity: 1.103 ± 0.029 mPa·s
298.15 K, x1 = 0.0996
  viscosity: 0.3496 ± 0.0094 mPa·s
298.15 K, x1 = 0.2035
  viscosity: 0.4046 ± 0.011 mPa·s
298.15 K, x1 = 0.3025
  viscosity: 0.4636 ± 0.012 mPa·s
298.15 K, x1 = 0.4049
  viscosity: 0.535 ± 0.014 mPa·s
298.15 K, x1 = 0.4986
  viscosity: 0.6098 ± 0.016 mPa·s
298.15 K, x1 = 0.5973
  viscosity: 0.6994 ± 0.018 mPa·s
298.15 K, x1 = 0.6968
  viscosity: 0.8024 ± 0.021 mPa·s
298.15 K, x1 = 0.8015
  viscosity: 0.9213 ± 0.024 mPa·s
298.15 K, x1 = 0.9037
  viscosity: 1.036 ± 0.027 mPa·s
303.15 K, x1 = 0.13
  viscosity: 0.3546 ± 0.0095 mPa·s
303.15 K, x1 = 0.222
  viscosity: 0.3976 ± 0.011 mPa·s
303.15 K, x1 = 0.302
  viscosity: 0.4411 ± 0.012 mPa·s
303.15 K, x1 = 0.4025
  viscosity: 0.5015 ± 0.013 mPa·s
303.15 K, x1 = 0.5066
  viscosity: 0.5766 ± 0.015 mPa·s
303.15 K, x1 = 0.605
  viscosity: 0.6562 ± 0.017 mPa·s
303.15 K, x1 = 0.6994
  viscosity: 0.7482 ± 0.02 mPa·s
303.15 K, x1 = 0.805
  viscosity: 0.8527 ± 0.023 mPa·s
303.15 K, x1 = 0.9011
  viscosity: 0.9472 ± 0.025 mPa·s
313.15 K, x1 = 0.13
  viscosity: 0.3238 ± 0.0087 mPa·s
313.15 K, x1 = 0.222
  viscosity: 0.3607 ± 0.0097 mPa·s
313.15 K, x1 = 0.302
  viscosity: 0.3993 ± 0.011 mPa·s
313.15 K, x1 = 0.4025
  viscosity: 0.4518 ± 0.012 mPa·s
313.15 K, x1 = 0.5066
  viscosity: 0.5138 ± 0.014 mPa·s
313.15 K, x1 = 0.605
  viscosity: 0.5817 ± 0.015 mPa·s
313.15 K, x1 = 0.6994
  viscosity: 0.6564 ± 0.017 mPa·s
313.15 K, x1 = 0.805
  viscosity: 0.7437 ± 0.02 mPa·s
313.15 K, x1 = 0.9011
  viscosity: 0.8218 ± 0.022 mPa·s

## CCNc1ccccc1 + Brc1ccccc1
303.15 K, x1 = 0.0714
  viscosity: 1.056 ± 0.012 mPa·s
303.15 K, x1 = 0.1264
  viscosity: 1.092 ± 0.012 mPa·s
303.15 K, x1 = 0.1965
  viscosity: 1.139 ± 0.013 mPa·s
303.15 K, x1 = 0.2605
  viscosity: 1.183 ± 0.013 mPa·s
303.15 K, x1 = 0.3365
  viscosity: 1.237 ± 0.013 mPa·s
303.15 K, x1 = 0.3956
  viscosity: 1.28 ± 0.013 mPa·s
303.15 K, x1 = 0.4958
  viscosity: 1.352 ± 0.014 mPa·s
303.15 K, x1 = 0.5606
  viscosity: 1.399 ± 0.014 mPa·s
303.15 K, x1 = 0.6429
  viscosity: 1.46 ± 0.014 mPa·s
303.15 K, x1 = 0.7152
  viscosity: 1.514 ± 0.015 mPa·s
303.15 K, x1 = 0.7825
  viscosity: 1.565 ± 0.015 mPa·s
303.15 K, x1 = 0.8628
  viscosity: 1.628 ± 0.015 mPa·s
303.15 K, x1 = 0.9205
  viscosity: 1.675 ± 0.016 mPa·s
308.15 K, x1 = 0.0714
  viscosity: 0.995 ± 0.012 mPa·s
308.15 K, x1 = 0.1264
  viscosity: 1.023 ± 0.012 mPa·s
308.15 K, x1 = 0.1965
  viscosity: 1.06 ± 0.012 mPa·s
308.15 K, x1 = 0.2605
  viscosity: 1.095 ± 0.013 mPa·s
308.15 K, x1 = 0.3365
  viscosity: 1.137 ± 0.013 mPa·s
308.15 K, x1 = 0.3956
  viscosity: 1.171 ± 0.013 mPa·s
308.15 K, x1 = 0.4958
  viscosity: 1.229 ± 0.013 mPa·s
308.15 K, x1 = 0.5606
  viscosity: 1.268 ± 0.014 mPa·s
308.15 K, x1 = 0.6429
  viscosity: 1.319 ± 0.014 mPa·s
308.15 K, x1 = 0.7152
  viscosity: 1.364 ± 0.014 mPa·s
308.15 K, x1 = 0.7825
  viscosity: 1.407 ± 0.015 mPa·s
308.15 K, x1 = 0.8628
  viscosity: 1.46 ± 0.015 mPa·s
308.15 K, x1 = 0.9205
  viscosity: 1.499 ± 0.015 mPa·s
